SMILES strings stand for the structures. A value given as a limit tells only on which side of the number the result lay.

The results in this text go back to patent US20220380370A1 (Goldfinch Bio, Inc., priority 2019, published 2022).

For this assay, the target named is T1, CB1 receptor (Homo sapiens, UniProt P21554).
T1 construct: Perkin Elmer (CB1-CHO cells); host or cells: Flp-In CHO cells or CB1-CHO cells, stably expressing
T1 sequence (P21554 whole entry): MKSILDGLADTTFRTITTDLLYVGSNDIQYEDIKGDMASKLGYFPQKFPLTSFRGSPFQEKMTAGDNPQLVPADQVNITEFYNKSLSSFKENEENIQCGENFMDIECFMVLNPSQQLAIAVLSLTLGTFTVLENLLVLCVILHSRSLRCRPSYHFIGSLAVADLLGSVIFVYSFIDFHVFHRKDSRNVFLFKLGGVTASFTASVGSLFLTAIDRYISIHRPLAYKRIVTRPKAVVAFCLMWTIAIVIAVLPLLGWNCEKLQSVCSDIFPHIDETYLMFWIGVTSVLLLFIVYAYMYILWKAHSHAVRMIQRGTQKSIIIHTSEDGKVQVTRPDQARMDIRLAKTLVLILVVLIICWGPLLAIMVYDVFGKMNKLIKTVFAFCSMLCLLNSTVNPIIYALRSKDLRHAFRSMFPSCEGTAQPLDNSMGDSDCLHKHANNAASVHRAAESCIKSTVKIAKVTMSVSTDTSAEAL
Put plainly: CB1 cAMP antagonist assay (LANCE Ultra cAMP kit). The format is cell-based. The settings on record: CHO cells stably expressing the CB1 receptor; forskolin and agonist CP55940 at EC90. From the text: LANCE Ultra cAMP kit (Perkin Elmer) was used to quantitate the amount of 3′,5′-cyclic adenosine monophosphate (cAMP) produced in Flp-In CHO cells (Invitrogen) stably expressing the CB1 receptor, CB1-CHO cells (Perkin Elmer) stably expressing the CB1 receptor, or CB2-CHO cells (Perkin Elmer) stably expressing the CB2 receptor.
Forskolin was initially titrated to determine the response of the cells. The EC90 of forskolin was used for compound testing. CP55940 was titrated and used with EC90 of forskolin to determine the level of agonist stimulation. EC90 of the agonist was used for subsequent compound testing. For the CB1 assay, Forskolin (Sigma), CP55940 (Cayman Chemicals), and AM251 (MCE) were diluted in 100% DMSO, starting at 100 mM, 1 mM, and 1 mM respectively, in 3-fold serial dilutions. For the CB2 assay, Forskolin (Sigma), CP55940 (Cayman Chemicals), and AM630 (MCE) were diluted in 100% DMSO, starting at 100 mM, 1 mM, and 30 mM respectively, in 3-fold serial dilutions. Test compounds were diluted in 100% DMSO starting from 10 mM, 3-fold dilutions. The cAMP assay buffer contains 1× Hank's Buffered Saline Solution with Ca^2+ and Mg^2+ (Invitrogen), 5.3 mM HEPES (Invitrogen), 0.05% BSA, 0.5 mM IBMX (Sigma). For all assays, cells were harvested, counted, and diluted in cAMP assay buffer to 1×10^5 cells/mL. Only cells with viability >85% were used for the assay. Cells were seeded at 1000 cells/well in 384-well plates and 10 nL/well AM251 (for CB1), AM630 (for CB2) or test compound was added and incubated at 37° C. for 10 min. Then forskolin and agonist were added to reach their EC90 and incubated at 25° C. for 30 min. To detect the amount of cAMP produced, 5 μL of a 100× diluted stock of Eu-cAMP tracer and 5 μL of 200× diluted stock of Ulight-anti-cAMP were added to each well, and the plate incubated at 25° C. for 15 min. The FRET signal was read using an EnVision microplate reader (λex=320 nm, λem=615 nm and 665 nm). The results are expressed as % Inhibition, where % inhibition=100−100×(U−C2)/(C1−C2), where U is the FRET ratio (λem (665 nm)/λem (615 nm)) of sample, C1 is the average of the high controls (signal with no antagonist added), and C2 is the average of low controls (signal with the highest concentration of AM251 or AM630 antagonist). The IC50 is determined by fitting the percentage of inhibition as a function of compound concentrations with the Hill equation, using a 4-parameter fit in either XLfit or GraphPad Prism.
Background: TR-FRET usually uses a lanthanide donor and a delayed reading to cut background.
In general, IC50 refers to the point on the concentration scale where inhibition reaches its midpoint. For the molecule `Cn1c(=O)c2c(nc(-c3ccccc3Cl)n2-c2ccc(Cl)cc2)n(CC2CCCCC2)c1=O` [Compound 110, 8-(2-chlorophenyl)-7-(4-chlorophenyl)-3-(cyclohexylmethyl)-1-methyl-2,3,6,7-tetrahydro-1H-purine-2,6-dione], the IC50 was under 100 nM.
With `Cn1c(=O)c2c(nc(-c3cccnc3Cl)n2-c2ccc(Cl)cc2)n(C2CCCCC2)c1=O` [Compound 152, 7-(4-chlorophenyl)-8-(2-chloropyridin-3-yl)-3-cyclohexyl-1-methylpurine-2,6-dione], the IC50 is under 100 nM.
The value for `CS(=O)(=O)c1ccc(Cn2c(=O)n(CC(N)=O)c(=O)c3c2nc(-c2ccccc2Cl)n3-c2ccc(Cl)cc2)nc1` [Compound 154] was under 100 nM; that for `NC(=O)Cn1c(=O)c2c(nc(-c3ccccc3Cl)n2-c2ccc(Cl)cc2)n(Cc2ccc(S(N)(=O)=O)cc2)c1=O` [Compound 153] was under 100 nM.
The value for `Cn1c(=O)c2c(nc(-c3ccccc3Cl)n2-c2ccc(Cl)cc2)n(Cc2ccc(C(=O)NCC(C)(C)O)cn2)c1=O` [Compound 166] was under 100 nM.
The value for `NS(=O)(=O)Cn1c(=O)c2c(nc(-c3ccccc3Cl)n2-c2ccc(Cl)cc2)n(Cc2ccc(Cl)cn2)c1=O` [Compound 169, [8-(2-chlorophenyl)-7-(4-chlorophenyl)-3-[(5-chloropyridin-2-yl)methyl]-2,6-dioxopurin-1-yl]methanesulfonamide] was under 100 nM.
`Cn1nccc1-c1nc2c(c(=O)n(C)c(=O)n2Cc2ccc(S(N)(=O)=O)cc2)n1-c1ccc(Cl)cc1` [Compound 181] came in with an IC50 of under 100 nM.
The result for `Cn1c(=O)c2c(nc(-c3ccccc3Cl)n2-c2ccc(Cl)cc2)n(Cc2ccc(Cl)cc2)c1=O` [Compound 109, 8-(2-chlorophenyl)-7-(4-chlorophenyl)-3-[(4-chlorophenyl)methyl]-1-methyl-2,3,6,7-tetrahydro-1H-purine-2,6-dione] reads under 100 nM.
The value for `NC(=O)Cn1c(=O)c2c(nc(-c3ccccc3Cl)n2-c2ccc(Cl)cc2)n(Cc2ccc(CC(O)CO)cc2)c1=O` (stereo in doubt) [Compound 146, 2-[8-(2-chlorophenyl)-7-(4-chlorophenyl)-3-([4-[(2S)-2,3-dihydroxypropyl]phenyl]methyl)-2,6-dioxopurin-1-yl]acetamide] was 100 to 1000 nM; that for `O=c1[nH]c(=O)n(Cc2ccc(Cl)cc2)c2nc(-c3ccccc3Cl)n(-c3ccc(Cl)cc3)c12` [Compound 119, 8-(2-chlorophenyl)-7-(4-chlorophenyl)-3-[(4-chlorophenyl)methyl]-2,3,6,7-tetrahydro-1H-purine-2,6-dione] was under 100 nM; that for `NC(=O)Cn1c(=O)c2c(nc(-c3ccccc3Cl)n2-c2ccc(Cl)cc2)n(CC2COCCO2)c1=O` (stereo in doubt) [Compound 127, 2-[8-(2-chlorophenyl)-7-(4-chlorophenyl)-3-[(2R)-1,4-dioxan-2-ylmethyl]-2,6-dioxopurin-1-yl]acetamide] was 100 to 1000 nM.
The result for `NC(=O)Cn1c(=O)c2c(nc(-c3ccccc3Cl)n2-c2ccc(Cl)cc2)n(C2CCOCC2)c1=O` [Compound 133] reads under 100 nM; that for `CN(CCO)C(=O)c1ccc(Cn2c(=O)n(C)c(=O)c3c2nc(-c2ccccc2Cl)n3-c2ccc(Cl)cc2)cc1` [Compound 126], 100 to 1000 nM.
Consider `CS(=N)(=O)c1ccc(Cn2c(=O)n(CC(N)=O)c(=O)c3c2nc(-c2ccccc2Cl)n3-c2ccc(Cl)cc2)cc1` (stereo not drawn) [Compound 156, 2-[8-(2-chlorophenyl)-7-(4-chlorophenyl)-3-([4-[imino(methyl)oxo-lambda6-sulfanyl]phenyl]methyl)-2,6-dioxopurin-1-yl]acetamide], for which the IC50 was under 100 nM.
The result for `CC(C(N)=O)n1c(=O)c2c(nc(-c3ccccc3Cl)n2-c2ccc(Cl)cc2)n(CC2CCS(=O)(=O)CC2)c1=O` (stereo in doubt) [Compound 144, (2R)-2-[8-(2-chlorophenyl)-7-(4-chlorophenyl)-3-[(1,1-dioxo-1 lambda6-thian-4-yl)methyl]-2,6-dioxopurin-1-yl]propanamide] reads under 100 nM.
The value for `C[C@H](C(N)=O)n1c(=O)c2c(nc(-c3ccccc3Cl)n2-c2ccc(Cl)cc2)n(C2CCOCC2)c1=O` [Compound 137] was 100 to 1000 nM; that for `C[C@H](CO)NC(=O)c1ccc(Cn2c(=O)n(C)c(=O)c3c2nc(-c2ccccc2Cl)n3-c2ccc(Cl)cc2)nc1` [Compound 161] was under 100 nM.
Regarding `CN1CCN(Cc2ccc(Cn3c(=O)n(CC(N)=O)c(=O)c4c3nc(-c3ccccc3Cl)n4-c3ccc(Cl)cc3)cc2)CC1` [Compound 118], the IC50 lay within 1000 to 5000 nM.
The result for `NC(=O)Cn1c(=O)c2c(nc(-c3ccccc3Cl)n2-c2ccc(Cl)cc2)n(CC2COCCO2)c1=O` (racemic) [Compound 124, 2-[8-(2-chlorophenyl)-7-(4-chlorophenyl)-3-(1,4-dioxan-2-ylmethyl)-2,6-dioxopurin-1-yl]acetamide] reads under 100 nM; that for `Cn1c(=O)[nH]c2nc(-c3ccccc3Cl)n(-c3ccc(Cl)cc3)c2c1=O` [Compound 147, 8-(2-chlorophenyl)-7-(4-chlorophenyl)-1-methyl-3H-purine-2,6-dione], 1000 to 5000 nM; that for `CS(=O)(=O)N1CCC(Cn2c(=O)n(CC(N)=O)c(=O)c3c2nc(-c2ccccc2Cl)n3-c2ccc(Cl)cc2)CC1` [Compound 158], under 100 nM.
`NC(=O)Cn1c(=O)c2c(nc(-c3ccc(F)cc3Cl)n2-c2ccc(Cl)cc2)n(CC2CCS(=O)(=O)CC2)c1=O` [Compound 173] came in with an IC50 of under 100 nM.
The value for `Cn1c(=O)c2c(nc(-c3ccccc3Cl)n2-c2ccc(Cl)cc2)n(CC2CCN(C[C@H](O)CO)CC2)c1=O` [Compound 113, 8-(2-chlorophenyl)-7-(4-chlorophenyl)-3-([1-[(2S)-2,3-dihydroxypropyl]piperidin-4-yl]methyl)-1-methyl-2,3,6,7-tetrahydro-1H-purine-2,6-dione] was at least 5000 nM.
Regarding `CN(CCO)Cc1ccc(Cn2c(=O)n(C)c(=O)c3c2nc(-c2ccccc2Cl)n3-c2ccc(Cl)cc2)cc1` [Compound 120], the IC50 was in the range of 100 to 1000 nM.
The value for `NC(=O)Cn1c(=O)c2c(nc(-c3ccccc3Cl)n2-c2ccc(Cl)cc2)n(CC2COCCO2)c1=O` (stereo in doubt) [Compound 128, 2-[8-(2-chlorophenyl)-7-(4-chlorophenyl)-3-[(2S)-1,4-dioxan-2-ylmethyl]-2,6-dioxopurin-1-yl]acetamide] was 100 to 1000 nM; that for `C[C@@H](Cn1c(=O)c2c(nc(-c3ccccc3Cl)n2-c2ccc(Cl)cc2)n(CC2CCS(=O)(=O)CC2)c1=O)C(N)=O` [Compound 174, (2S)-3-[8-(2-chlorophenyl)-7-(4-chlorophenyl)-3-[(1,1-dioxo-1λ^6-thian-4-yl)methyl]-2,6-dioxopurin-1-yl]-2-methylpropanamide] was under 100 nM.
In the case of `CC(=O)N1CCC(Cn2c(=O)n(C[C@@H](O)CO)c(=O)c3c2nc(-c2ccccc2Cl)n3-c2ccc(Cl)cc2)CC1` [Compound 130, (R)-3-[(1-acetylpiperidin-4-yl)methyl]-8-(2-chlorophenyl)-7-(4-chlorophenyl)-1-[2,3-dihydroxypropyl]purine-2,6-dione], the IC50 was in the range of 100 to 1000 nM.
The value for `CC(C(N)=O)n1c(=O)c2c(nc(-c3ccccc3Cl)n2-c2ccc(Cl)cc2)n(CC2CCS(=O)(=O)CC2)c1=O` (stereo in doubt) [Compound 142, (2S)-2-[8-(2-chlorophenyl)-7-(4-chlorophenyl)-3-[(1,1-dioxo-1 lambda6-thian-4-yl)methyl]-2,6-dioxopurin-1-yl]propanamide] was under 100 nM; that for `NC(=O)Cn1c(=O)c2c(nc(-c3ccccc3Cl)n2-c2ccc(Cl)cc2)n(Cc2ccc(CN3CCOCC3)cc2)c1=O` [Compound 121, 2-[8-(2-chlorophenyl)-7-(4-chlorophenyl)-3-([4-[(morpholin-4-yl)methyl]phenyl]methyl)-2,6-dioxo-2,3,6,7-tetrahydro-1H-purin-1-yl]acetamide] was under 100 nM.
On to `CC(=O)N1CCC(Cn2c(=O)n(C)c(=O)c3c2nc(-c2ccccc2Cl)n3-c2ccc(Cl)cc2)CC1` [Compound 107, 3-[(1-acetylpiperidin-4-yl)methyl]-8-(2-chlorophenyl)-7-(4-chlorophenyl)-1-methylpurine-2,6-dione], for which the IC50 was under 100 nM.
